{"source": "patent US20240052003A1", "about": "“COMPOSITIONS COMPRISING PEDF-DERIVED SHORT PEPTIDES (PDSP) AND USES THEREOF” (BRIM Biotechnology, Inc., priority 2019, published 2024)", "origin": "cited, not measured here", "system": "eye", "conditions": "ocular application", "data": [{"molecule": "NC(=O)c1cccnc1", "note": "[nicotinamide]", "values": [{"measurement": "Eye irritation", "value": "may cause eye irritation"}]}]}
